This is an account of results in ChEMBL document CHEMBL1144941, “Synthesis of second-generation transition state analogues of human purine nucleoside phosphorylase” (J Med Chem, 2003).

This assay concerns the target T1, Purine nucleoside phosphorylase (Homo sapiens) (UniProt P00491).
T1 sequence (whole entry): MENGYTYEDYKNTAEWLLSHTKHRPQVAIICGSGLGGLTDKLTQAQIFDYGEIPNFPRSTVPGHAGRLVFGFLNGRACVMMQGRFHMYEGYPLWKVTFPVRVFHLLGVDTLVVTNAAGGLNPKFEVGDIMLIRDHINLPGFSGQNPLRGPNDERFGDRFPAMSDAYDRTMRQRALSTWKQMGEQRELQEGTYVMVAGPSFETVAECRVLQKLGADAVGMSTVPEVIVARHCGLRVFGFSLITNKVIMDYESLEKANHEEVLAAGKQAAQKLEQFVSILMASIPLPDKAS
Conditions: Urine.

Structures are written as SMILES.

`OC[C@H]1CN(Cc2n[nH]c3c(O)ncnc23)CC1O` (stereo partly specified): the NS entry was “No slow onset”.
